How the values were obtained:
Boophilus microplus = Boophilus microplus - injection test; assay type: in vivo; settings: application rate 20 μg/animal, injection into engorged adult female ticks, after 7 days
Summary of the method: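 Five engorged adult female cattle ticks each received a 1 μl abdominal injection of compound solution in dimethyl sulphoxide. Fertile egg laying was assessed at 7 days, with doubtful eggs incubated about 42 days until hatch. 0% efficacy means all eggs fertile.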

[1] = tested on: Boophilus microplus Parkhurst strain, SP-resistant; test: Boophilus microplus - dip test; assay type: in vivo; settings: application rate 100 ppm; dip of engorged adult female ticks; after 7 days
Summary of the method: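 Compound dissolved in DMSO, diluted with water, and used to fully wet groups of 8-10 engorged female cattle ticks (SP-resistant Parkhurst strain). Fertile egg laying assessed at 7 days, doubtful eggs held ~42 days until hatch; 0% means all eggs fertile.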

[2] = logP determination by HPLC on a reversed-phase column (C18); assay type: physicochemical; settings: for logP: HPLC, C18 reversed phase, acetonitrile/water with formic acid, EEC Directive 79/831 Annex V.A8; for logP^a): HPLC-MS method a); for log P: HPLC-MS
[3] = tested on: Aedes aegypti strain MONHEIM; test: Aedes test (AEDSAE surface treatment); assay type: in vivo; settings: read-out: efficacy (mortality)
Description: (§1) Solvent: acetone+2000 ppm rapeseed oil methyl ester (RME)
To produce an appropriate active ingredient formulation, the active ingredient is dissolved in the solvent (2 mg/ml). The active ingredient formulation is pipetted onto a glazed tile and, after it has dried off, adult mosquitoes of the species Aedes aegypti strain MONHEIM are placed onto the treated tile. The exposure time is 30 minutes.
(§2) 24 hours after contact with the treated surface, mortality in % is determined. 100% means that all mosquitoes have been killed; 0% means that none of the mosquitoes have been killed.

Ctenocephalides felis [4] = test: Ctenocephalides felis - in vitro contact tests with adult cat fleas; assay type: in vivo; settings: application rate 5 μg/cm2 (=500 g/ha); after 48 h; fleas dead or moribund
Summary of the method: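 Efficacy, as percentage of fleas dead or moribund, was scored at 48 h by knocking fleas to the tube base. Exposure was by contact with a dried acetone film of compound at 5 μg/cm^2 area dose; 5–10 adults per tube, room temperature, ambient humidity.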

Amblyomma hebraeum = test: Amblyomma hebaraeum test (tick nymphs, immersion); assay type: in vivo; settings: application rate 100 ppm; tick nymphs immersed one minute; after 42 days
Summary of the method: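 Mortality (%) is read 42 days post-treatment, where 0% means no ticks and 100% all ticks killed. Nymphs were dipped for 1 min into the test dilution (DMSO stock diluted with water) and afterwards stored on filter paper under controlled climate.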

[5] = tested on: Anopheles funestus strain FUMOZ-R; test: Anopheles test (ANPHFU surface treatment); assay type: in vivo; settings: read-out: efficacy (mortality)
Description: as §1
To produce an appropriate active ingredient formulation, the active ingredient is dissolved in the solvent (2 mg/ml). The active ingredient formulation is pipetted onto a glazed tile and, after it has dried off, adult mosquitoes of the species Anopheles funestus strain FUMOZ-R (Hunt et al., Med Vet Entomol. 2005 September; 19 (3):271-5) are placed onto the treated tile. The exposure time is 30 minutes.
as §2

Musca domestica = Musca domestica test; assay type: in vivo; settings: application rate 100 ppm; adult houseflies; after 2 days
Summary of the method: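 Ten adult Musca domestica are exposed to a sugar-soaked sponge carrying the water-diluted DMSO formulation; kill in % is read 2 days later.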

Lucilia cuprina = Lucilia cuprina test; assay type: in vivo; settings: application rate 100 ppm; L1 larvae; after 2 days
Summary of the method: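 Mortality (%) of first-instar blowfly larvae, about 20 per vessel, recorded 2 days after exposure to compound-treated minced horsemeat. Compound dissolved in dimethyl sulphoxide, then water-diluted to the desired concentration.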

Ctenocephalides felis [6] = test: Ctenocephalides felis - oral test; assay type: in vivo; settings: application rate 100 ppm in citrated cattle blood; after 2 days
Summary of the method: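 Roughly 20 unfed adult C. felis imbibe compound-dosed citrated cattle blood (DMSO formulation) across parafilm from a cylinder above their gauze chamber; percentage mortality recorded at day 2.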

Tetranychus urticae = Tetranychus urticae - spray test, OP-resistant; assay type: in vivo; settings: bean leaf discs, after 6 days
Summary of the method: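 Mortality (%) read on day 6 after spraying Phaseolus vulgaris leaf discs carrying all mite stages with formulations at the desired concentration. Formulation: active ingredient in acetone plus dimethylformamide, made up with emulsifier-containing water (1000 ppm alkylaryl polyglycol ether).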

Myzus persicae = Myzus persicae - spray test; assay type: in vivo; settings: Chinese cabbage leaf discs, after 6 days
Summary of the method: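 Mortality of the green peach aphid, as % killed, was read 6 days after spraying infested Brassica pekinensis leaf discs. Compound formulated in acetone/dimethylformamide and made up with emulsifier-containing (1000 ppm) water.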

Spodoptera frugiperda = Spodoptera frugiperda - spray test; assay type: in vivo; settings: caterpillars on maize leaf discs, after 7 days
Summary of the method: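 Percent mortality of Spodoptera frugiperda caterpillars scored 7 days after placing them on dried maize leaf discs sprayed at the desired concentration. Spray formulation: compound dissolved in acetone/dimethylformamide, made up with water containing 1000 ppm emulsifier.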

Rhipicephalus sanguineus = Rhipicephalus sanguineus - in vitro contact tests with adult brown dog ticks; assay type: in vivo; settings: after 48 h, ticks dead or moribund
Summary of the method: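 Efficacy, scored after 48 h, is the % of adult ticks dead or moribund, i.e. unable to climb away on a 45-50° C hotplate within 5 min. Tubes held 5-10 ticks in the dark at room temperature, on an acetone-applied coating of 5 μg/cm^2 (900 ppm solution).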

Phaedon cochleariae = Phaedon cochleariae - spray test; assay type: in vivo; settings: larvae on Chinese cabbage leaf discs, after 7 days
Summary of the method: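 Mortality of mustard beetle larvae was scored as % at day 7 on Brassica pekinensis leaf discs. Discs had been treated by spraying at the desired concentration, using an acetone/dimethylformamide solution diluted in water with 1000 ppm alkylaryl polyglycol ether, and dried before larvae were added.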

[7] = reversed-phase column (C18), Table I-T3

O=C(NC1CC1)c1cc(-c2cc(-c3c(Cl)cc(C(F)(C(F)(F)F)C(F)(F)F)cc3Cl)on2)ccc1Cl [I-T23-1, 2-chloro-N-cyclopropyl-5-[5-[2,6-dichloro-4-[1,2,2,2-tetrafluoro-1-(trifluoromethyl)ethyl]phenyl]isoxazol-3-yl]benzamide]
pest or weed control at 0.02 mg (Boophilus microplus; Rhipicephalus microplus, 168 h, read-out: efficacy (laying of fertile eggs)): 100%
efficacy (laying of fertile eggs) [1]: 100%
logP [2]: 5.0
mortality at 20 mg/m2 [3]: 90 to 100%
mortality at 100 mg/m2 [3]: 90 to 100%
efficacy (Ctenocephalides felis [4]): 100%
efficacy (kill) (Amblyomma hebraeum): 100%
mortality at 20 mg/m2 [5]: 90 to 100%
efficacy (kill) (Musca domestica): 100%

CCc1cc(C(F)(F)C(F)(F)F)cc(C)c1-n1cc(-c2ccc(Cl)c(C(=O)NC3CC3)c2)cn1 [I-T3-81]
efficacy (kill) (Lucilia cuprina): 100%
efficacy (laying of fertile eggs) (Boophilus microplus): 100%
efficacy (laying of fertile eggs) [1]: 100%
logP^a) [2]: 4.3
logP^a) [2, 7]: 4.3
efficacy (kill) (Ctenocephalides felis [6]): 100%
efficacy (Tetranychus urticae; application rate 100 g/ha): 100%
efficacy (Myzus persicae; application rate 100 g/ha): 90%
efficacy (Ctenocephalides felis [4]): 100%
efficacy (kill) (Amblyomma hebraeum): 100%
efficacy (Spodoptera frugiperda; application rate 100 g/ha): 100%
efficacy (Rhipicephalus sanguineus; application rate 5 μg/cm2): 100%
efficacy (Phaedon cochleariae; application rate 100 g/ha): 100%
efficacy (kill) (Musca domestica): 90%

Cc1cc(C(F)(C(F)(F)F)C(F)(F)F)cc(C)c1-n1cc(-c2cnc(C)c(C(=O)NC3(C#N)CC3)c2)cn1 [I-T3-97]
efficacy (kill) (Lucilia cuprina): 100%
efficacy (laying of fertile eggs) (Boophilus microplus): 100%
efficacy (laying of fertile eggs) [1]: 100%
logP^a) [2]: 3.4
log P [2, 7]: 3.4
efficacy (kill) (Ctenocephalides felis [6]): 100%
efficacy (Tetranychus urticae; application rate 500 g/ha): 100%
efficacy (Myzus persicae; application rate 500 g/ha): 90%
efficacy (Ctenocephalides felis [4]): 100%
efficacy (kill) (Amblyomma hebraeum): 100%
efficacy (Spodoptera frugiperda; application rate 500 g/ha): 100%
efficacy (Rhipicephalus sanguineus; application rate 5 μg/cm2): 100%
efficacy (Phaedon cochleariae; application rate 500 g/ha): 100%
efficacy (kill) (Musca domestica): 100%

Cc1cc(C(F)(C(F)(F)F)C(F)(F)F)cc(C(F)(F)F)c1-n1cc(-c2cnc(Cl)c(C(=O)NC3CC3)c2)cn1 [I-T3-106]
efficacy (kill) (Lucilia cuprina): 100%
efficacy (laying of fertile eggs) (Boophilus microplus): 100%
efficacy (laying of fertile eggs) [1]: 100%
logP^a) ([2]; reversed-phase column (C18)): 4.0
log P [2, 7]: 4.0
efficacy (kill) (Ctenocephalides felis [6]): 100%
efficacy (Tetranychus urticae; application rate 500 g/ha): 100%
efficacy (Myzus persicae; application rate 500 g/ha): 100%
efficacy (Ctenocephalides felis [4]): 100%
efficacy (kill) (Amblyomma hebraeum): 100%
efficacy (Spodoptera frugiperda; application rate 500 g/ha): 100%
efficacy (Rhipicephalus sanguineus; application rate 5 μg/cm2): 100%
efficacy (Phaedon cochleariae; application rate 500 g/ha): 100%
efficacy (kill) (Musca domestica): 100%

Cc1cc(C(F)(C(F)(F)F)C(F)(F)F)cc(C(F)(F)F)c1-n1cc(-c2cnc(C)c(C(=O)N(C)C3(C#N)CC3)c2)cn1 [I-T3-123]
efficacy (kill) (Lucilia cuprina): 100%
efficacy (laying of fertile eggs) (Boophilus microplus): 100%
efficacy (laying of fertile eggs) [1]: 100%
logP^a) ([2]; reversed-phase column (C18)): 3.9
log P [2, 7]: 3.9
efficacy (kill) (Ctenocephalides felis [6]): 100%
efficacy (Tetranychus urticae; application rate 100 g/ha): 90%
efficacy (Myzus persicae; application rate 100 g/ha): 100%
efficacy (Ctenocephalides felis [4]): 100%
efficacy (kill) (Amblyomma hebraeum): 80%
efficacy (Spodoptera frugiperda; application rate 100 g/ha): 100%
efficacy (Rhipicephalus sanguineus; application rate 1 μg/cm2): 80%
efficacy (Phaedon cochleariae; application rate 100 g/ha): 100%
efficacy (kill) (Musca domestica): 100%

CCc1cc(C(F)(C(F)(F)F)C(F)(F)F)cc(C)c1-n1cc(-c2cnc(Cl)c(C(=O)NC3(C#N)CC3)c2)cn1 [I-T3-110]
efficacy (kill) (Lucilia cuprina): 100%
efficacy (laying of fertile eggs) (Boophilus microplus): 100%
efficacy (laying of fertile eggs) [1]: 100%
logP^a) ([2]; reversed-phase column (C18)): 4.1
log P [2, 7]: 4.1
efficacy (kill) (Ctenocephalides felis [6]): 100%
efficacy (Tetranychus urticae; application rate 500 g/ha): 100%
efficacy (Myzus persicae; application rate 500 g/ha): 100%
efficacy (Ctenocephalides felis [4]): 100%
efficacy (kill) (Amblyomma hebraeum): 100%
efficacy (Spodoptera frugiperda; application rate 500 g/ha): 100%
efficacy (Rhipicephalus sanguineus; application rate 5 μg/cm2): 100%
efficacy (Phaedon cochleariae; application rate 500 g/ha): 100%
efficacy (kill) (Musca domestica): 100%

Cc1cc(C(F)(C(F)(F)F)C(F)(F)F)cc(C)c1-c1cc(-c2ccc(Cl)c(C(=O)NC3(C#N)CC3)c2)on1 [I-T22-2]
efficacy (kill) (Lucilia cuprina): 100%
efficacy (laying of fertile eggs) (Boophilus microplus): 100%
efficacy (laying of fertile eggs) [1]: 100%
logP [2]: 4.6
efficacy (kill) (Ctenocephalides felis [6]): 100%
efficacy (Tetranychus urticae; application rate 100 g/ha): 90%
efficacy (Myzus persicae; application rate 100 g/ha): 100%
efficacy (Ctenocephalides felis [4]): 100%
efficacy (kill) (Amblyomma hebraeum): 100%
efficacy (Spodoptera frugiperda; application rate 100 g/ha): 100%
efficacy (Rhipicephalus sanguineus; application rate 5 μg/cm2): 100%
efficacy (Phaedon cochleariae; application rate 100 g/ha): 100%
efficacy (kill) (Musca domestica): 100%

N#CC1(NC(=O)c2cc(-c3cnn(-c4c(Cl)cc(C(F)(C(F)(F)F)C(F)(F)F)cc4OC(F)(F)F)c3)ccc2Cl)CC1 [I-T3-163]
efficacy (kill) (Lucilia cuprina): 100%
efficacy (laying of fertile eggs) (Boophilus microplus): 100%
efficacy (laying of fertile eggs) [1]: 100%
logP^a) ([2]; reversed-phase column (C18)): 4.5
log P [2, 7]: 4.5
efficacy (kill) (Ctenocephalides felis [6]): 100%
efficacy (Tetranychus urticae; application rate 100 g/ha): 100%
efficacy (Myzus persicae; application rate 100 g/ha): 90%
efficacy (Ctenocephalides felis [4]): 100%
efficacy (kill) (Amblyomma hebraeum): 100%
efficacy (Spodoptera frugiperda; application rate 100 g/ha): 100%
efficacy (Rhipicephalus sanguineus; application rate 5 μg/cm2): 100%
efficacy (Phaedon cochleariae; application rate 100 g/ha): 100%
efficacy (kill) (Musca domestica): 100%
